This is an account of results in patent publication US8501794B2, “Compounds as cannabinoid receptor ligands” (priority 2007, dated 2013).

The target in test [1] is T1, rat CB2 (Rattus norvegicus, UniProt Q9QZN9).
T1 sequence (Q9QZN9 1-360): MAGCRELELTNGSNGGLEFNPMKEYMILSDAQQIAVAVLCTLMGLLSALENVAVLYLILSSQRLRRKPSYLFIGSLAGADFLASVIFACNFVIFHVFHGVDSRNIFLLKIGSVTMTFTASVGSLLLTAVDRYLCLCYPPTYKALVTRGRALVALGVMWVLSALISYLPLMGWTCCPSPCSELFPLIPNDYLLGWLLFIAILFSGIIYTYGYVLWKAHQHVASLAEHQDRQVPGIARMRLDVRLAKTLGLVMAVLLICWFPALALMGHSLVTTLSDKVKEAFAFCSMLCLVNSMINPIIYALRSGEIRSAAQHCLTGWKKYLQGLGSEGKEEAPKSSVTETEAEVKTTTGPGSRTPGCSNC
Briefly: rat CB2 cyclase functional assay (HitHunter cAMP, HEK cells). It counts as cell-based. Also on record: expressed in transfected cells; host or cells: HEK. The settings on record: forskolin 18 μM.

The target in test [2] is T1, rat CB2. The test is described as follows: rat CB2 radioligand binding assay ([3H]CP-55,940 competition). Also noted: expressed in transfected cells; host or cells: HEK293.
The target in test [3] is T2, human CB2 receptors (Homo sapiens, UniProt P34972).
T2 construct: expressed in transfected cells; host or cells: HEK293
Briefly: human CB2 radioligand binding assay ([3H]CP-55,940 competition).

Each structure is given as a SMILES string.

T2 sequence (P34972 whole entry): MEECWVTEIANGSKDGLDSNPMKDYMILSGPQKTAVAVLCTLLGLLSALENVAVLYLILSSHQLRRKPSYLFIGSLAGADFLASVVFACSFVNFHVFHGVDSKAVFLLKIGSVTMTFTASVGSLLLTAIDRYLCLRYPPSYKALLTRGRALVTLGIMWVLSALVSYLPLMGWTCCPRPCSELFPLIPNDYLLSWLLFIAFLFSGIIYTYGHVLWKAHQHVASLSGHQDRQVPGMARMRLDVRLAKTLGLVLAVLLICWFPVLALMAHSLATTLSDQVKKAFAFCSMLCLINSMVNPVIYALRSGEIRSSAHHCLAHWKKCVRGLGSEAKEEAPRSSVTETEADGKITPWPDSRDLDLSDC

A word on the EC50: it is the midpoint of the concentration-response curve. A higher EC50 goes with weaker potency. By Ki is commonly meant a dissociation constant, usually derived from enzyme kinetics or from competition with a known ligand. High values mean lower affinity, low ones higher affinity. As for `CCCCc1cn(C(C)(C)C)s/c1=N\C(=O)[C@]1(C)CC[C@H](C(=O)OC)C1(C)C` [Example 177, Methyl (1S,3R)-3-({[(5Z)-4-butyl-2-tert-butylisothiazol-5(2H)-ylidene]amino}carbonyl)-2,2,3-trimethylcyclopentanecarboxylate], a half-maximal effect in test [1] (EC50) was put at 0.15 nM. Also, the Ki is 0.1 nM in test [2] and 0.16 nM in test [3].

In the case of `CCCCc1cn(C(C)(C)C)s/c1=N\S(=O)(=O)c1cccc(Cl)c1Cl` [Example 122, N-[(5Z)-4-butyl-2-tert-butylisothiazol-5(2H)-ylidene]-2,3-dichlorobenzenesulfonamide], the midpoint of the response in test [1], the EC50, lay at 1.9 nM. For the same compound, the inhibitory constant (Ki) in test [2] stood at 11 nM; in test [3], 18 nM.

`CCCCc1cn(C(C)(C)C)s/c1=N\C(=O)C1(C)CCC(C(=O)OC)C1(C)C` (racemic) [Example 92, Methyl 3-({[(5Z)-4-butyl-2-tert-butylisothiazol-5(2H)-ylidene]amino}carbonyl)-2,2,3-trimethylcyclopentanecarboxylate] came in with an EC50 in test [1] of 0.45 nM. The Ki stood at 0.25 nM in test [2] and 0.2 nM in test [3].

The compound `CCCCc1cn(C(C)(C)C)s/c1=N\C(=O)[C@H]1CC[C@@](C)(C(N)=O)C1(C)C` [Example 171, (1R,3S)—N^3-[(5Z)-4-butyl-2-tert-butylisothiazol-5(2H)-ylidene]-1,2,2-trimethylcyclopentane-1,3-dicarboxamide] returned an EC50 in test [1] of 0.19 nM. The Ki is 5.8 nM in test [2] and 9 nM in test [3].

Turning to `CCCCc1cn(C(C)(C)C)s/c1=N\C(=O)c1cc(C(C)=O)ccc1OC` [Example 64, 5-acetyl-N-[(5Z)-4-butyl-2-tert-butylisothiazol-5(2H)-ylidene]-2-methoxybenzamide], in test [1], the EC50 came out at 0.05 nM. Besides, the Ki in test [2] worked out at 0.63 nM; in test [3], 14 nM.

`CC(C)Cc1cn(C(C)(C)C)s/c1=N\C(=O)c1cc(Cl)ccc1OCCF` [Example 144, N-[(5Z)-2-tert-butyl-4-isobutylisothiazol-5(2H)-ylidene]-5-chloro-2-(2-fluoroethoxy)benzamide] showed a concentration for a half-maximal effect (EC50) in test [1] of 0.1 nM. Besides, the inhibitory constant (Ki) stood at 1.2 nM in test [2] and 8.8 nM in test [3].

Compound `COc1ccc(Cl)cc1C(=O)/N=c1\sn(C(C)(C)C)cc1CCCC(C)(C)F` [Example 83, N-[(5Z)-2-tert-butyl-4-(4-fluoro-4-methylpentyl)isothiazol-5(2H)-ylidene]-5-chloro-2-methoxybenzamide] came in with an EC50 in test [1] of 0.073 nM. Also, the results for the inhibition constant Ki in test [2] and in test [3] were 0.79 nM and 12 nM, respectively.

For `CCCCc1cn(C(C)(C)C)s/c1=N\C(=O)c1cc(C(F)F)ccc1OC` [Example 65, N-[(5Z)-4-butyl-2-tert-butylisothiazol-5(2H)-ylidene]-5-(difluoromethyl)-2-methoxybenzamide], the 50% effective concentration (EC50) in test [1] was determined as 0.052 nM. Further, the Ki in test [2] is 1.6 nM; in test [3] it was 9.3 nM.

As for `CCCCc1cn(C(C)(C)C)s/c1=N\C(=O)[C@@]1(C)CC[C@@H](C(=O)NCC(F)(F)F)C1(C)C` [Example 240, (1S,3R)—N^1-[(5Z)-4-butyl-2-tert-butylisothiazol-5(2H)-ylidene]-1,2,2-trimethyl-N^3-(2,2,2-trifluoroethyl)cyclopentane-1,3-dicarboxamide], the response in test [1] was half-maximal at 2.5 nM (EC50). For the same compound, the figures for the Ki in test [2] and in test [3] were 156 nM and 100 nM, respectively.

In turn, `COc1ccc(Cl)cc1C(=O)/N=c1\sn(C(C)(C)C)cc1CC1OCCO1` [Example 22, N-[(5Z)-2-tert-butyl-4-(1,3-dioxolan-2-ylmethyl)isothiazol-5(2H)-ylidene]-5-chloro-2-methoxybenzamide] had an EC50 in test [1] of 0.24 nM. Also, the results for the Ki in test [2] and in test [3] were 6.2 nM and 67 nM, respectively.

As for `COc1ccc(Cl)cc1C(=O)/N=c1\sn(C(C)(C)C)cc1COC(C)C` [Example 72, N-[(5Z)-2-tert-butyl-4-(isopropoxymethyl)isothiazol-5(2H)-ylidene]-5-chloro-2-methoxybenzamide], in test [1], the concentration giving a half-maximal response (EC50) was found to be 0.054 nM. Also, the Ki in test [2] turned out to be 7.4 nM; in test [3], 19 nM.

In test [1], `COc1ccc(Cl)cc1C(=O)/N=c1\sn(C(C)(C)C)cc1CC1CC(C)=NO1` (stereo not drawn) [Example 7] yielded a half-maximal effective concentration (EC50) of 2.7 nM. Moreover, the values for the Ki in test [2] and in test [3] were 8.8 nM and 370 nM, respectively.

As for `COc1ccc(Cl)cc1C(=O)/N=c1\sn(C(C)(C)C)cc1C1CCOCC1` [Example 39, N-[(5Z)-2-tert-butyl-4-tetrahydro-2H-pyran-4-ylisothiazol-5(2H)-ylidene]-5-chloro-2-methoxybenzamide], in test [1], the response was half-maximal at 1.6 nM (EC50). Further, the Ki in test [2] worked out at 26 nM; in test [3] it was 99 nM.

In test [1], `CCCCc1cn(C(C)(C)C)s/c1=N\C(=O)c1cc(Cl)ccc1OCC#N` [Example 153, N-[(5Z)-4-butyl-2-tert-butylisothiazol-5(2H)-ylidene]-5-chloro-2-(cyanomethoxy)benzamide] showed an EC50 of 0.061 nM. For the same compound, the inhibition constant (Ki) worked out at 2.1 nM in test [2] and 13 nM in test [3].

`CCCCc1cn(C(C)(C)C)s/c1=N\C(=O)c1cc(C#N)ccc1OC` [Example 26, N-[(5Z)-4-butyl-2-tert-butylisothiazol-5(2H)-ylidene]-5-cyano-2-methoxybenzamide] showed an EC50 in test [1] of 0.23 nM. Besides, the values for the Ki in test [2] and in test [3] were 1 nM and 14 nM, respectively.

Consider `COc1ccc(Cl)cc1C(=O)/N=c1\sn(C(C)(C)C)cc1CC1CCC1` [Example 38, N-[(5Z)-2-tert-butyl-4-(cyclobutylmethyl)isothiazol-5(2H)-ylidene]-5-chloro-2-methoxybenzamide], for which, in test [1], the half-maximal effective concentration (EC50) was 1.7 nM. Also, the Ki in test [2] turned out to be 0.61 nM; in test [3], 2.5 nM.

In test [1], `CCCCc1cn(C(C)(C)CF)s/c1=N\C(=O)c1cc(C(F)(F)F)ccc1OC` [Example 152, N-[(5Z)-4-butyl-2-(2-fluoro-1,1-dimethylethyl)isothiazol-5(2H)-ylidene]-2-methoxy-5-(trifluoromethyl)benzamide] had a concentration for a half-maximal effect (EC50) of 0.071 nM. In addition, the inhibition constant Ki was determined as 0.79 nM in test [2] and 5.1 nM in test [3].

In test [1], `COc1ccc(C(F)(F)F)cc1C(=O)/N=c1\sn(C(C)(C)C)cc1CCCC#N` [Example 134, N-[(5Z)-2-tert-butyl-4-(3-cyanopropyl)isothiazol-5(2H)-ylidene]-2-methoxy-5-(trifluoromethyl)benzamide] registered an EC50 of 1.6 nM. Also, the Ki is 1.1 nM in test [2] and 18 nM in test [3].

With `CCCCc1cn(C(C)(C)C)s/c1=N\C(=O)NC1CCC(C)CC1` (stereo not drawn) [Example 191, N-[(5Z)-4-butyl-2-tert-butylisothiazol-5(2H)-ylidene]-N′-(4-methylcyclohexyl)urea], the response in test [1] was half-maximal at 0.51 nM (EC50). The inhibition constant Ki in test [2] worked out at 1.8 nM; in test [3], 15 nM.

The compound `COc1ccc(C(F)(F)F)cc1C(=O)/N=c1\sn(C(C)(C)C)cc1CCCC(C)(C)O` [Example 81, N-[(5Z)-2-tert-butyl-4-(4-hydroxy-4-methylpentyl)isothiazol-5(2H)-ylidene]-2-methoxy-5-(trifluoromethyl)benzamide] displayed an EC50 in test [1] of 0.061 nM. Moreover, the values for the Ki in test [2] and in test [3] were 2.6 nM and 45 nM, respectively.

For `CCCCc1cn(C(C)(C)C)s/c1=N\C(=O)[C@@]1(C)CC[C@@H](C(=O)OC)C1(C)C` [Example 186, Methyl (1R,3S)-3-({[(5Z)-4-butyl-2-tert-butylisothiazol-5(2H)-ylidene]amino}carbonyl)-2,2,3-trimethylcyclopentanecarboxylate], the EC50 in test [1] was determined as 0.38 nM. Also, the Ki in test [2] turned out to be 1.4 nM; in test [3], 1.7 nM.

`CCCCc1cn(C(C)(C)C)s/c1=N\C(=O)c1cc(C(F)(F)F)ccc1OC[C@@H]1COC(=O)N1` [Example 195, N-[(5Z)-4-butyl-2-tert-butylisothiazol-5(2H)-ylidene]-2-{[(4R)-2-oxo-1,3-oxazolidin-4-yl]methoxy}-5-(trifluoromethyl)benzamide]: it took 1.4 nM to reach a half-maximal effect in test [1] (EC50). Besides, the inhibition constant Ki in test [2] stood at 7.6 nM; in test [3] it was 16 nM.

In test [1], `CC(C)(C)n1cc(CCCC#N)/c(=N/C(=O)c2cc(Cl)ccc2OCC(N)=O)s1` [Example 141, 2-(2-amino-2-oxoethoxy)-N-[(5Z)-2-tert-butyl-4-(3-cyanopropyl)isothiazol-5(2H)-ylidene]-5-chlorobenzamide] gave an EC50 of 0.094 nM. Besides, the inhibitory constant (Ki) in test [2] was determined as 15 nM; in test [3] it was 56 nM.

In turn, `CCCCc1cn(C(C)(C)C)s/c1=N\C(=O)C1(C)CCC(C(=O)O)C1(C)C` (stereo not drawn) [Example 96, 3-({[(5Z)-4-butyl-2-tert-butylisothiazol-5(2H)-ylidene]amino}carbonyl)-2,2,3-trimethylcyclopentanecarboxylic acid] came in with an EC50 in test [1] of 1.4 nM. For the same compound, the values for the Ki in test [2] and in test [3] were 27 nM and 20 nM, respectively.

As for `CCCCc1cn(C(C)(C)C)s/c1=N\C(=O)c1cc(Cl)ccc1OC` [Example 1, N-[(5Z)-4-butyl-2-tert-butylisothiazol-5(2H)-ylidene]-5-chloro-2-methoxybenzamide], in test [1], the EC50 turned out to be 0.72 nM. The Ki in test [2] is 1.5 nM; in test [3] it was 16 nM.
